What was measured:
human ETA receptor = experiment: Endothelin binding inhibition test to human ET receptor (ETA); conditions: 1.1 μM; human cell membranes (SK-N-MC or Girardi heart cells)
Protocol: (§1) Endothelin binding inhibition test to human ET receptor
(§2) The human neuroblastoma SK-N-MC cells or the human Girardi heart cells purchased from Dainippon Seiyaku (Japan) were cultured in minimal essential medium supplemented with fetal calf serum. The cells were collected and homogenized in 10 mM MOPS buffer (pH 7.4) containing 154 mM NaCl, 10 mM KCl, 0.8 mM CaCl2 and 20% sucrose at 4° C. using a polytron homogenizer. The homogenate was then centrifuged at 1,000×gfor 15 minutes. The supernatant was centrifuged at 100,000×g for 1 hour at 4° C. Then the pellet was washed with 5 mM Hepes/Tris buffer (pH 7.4). The resulting membranes were incubated with [^125 I]endothelin-1 in the presence of each test compound or vehicle (1% dimethyl sulfoxide) in 50 mM Tris/HCl buffer (pH 7.4) containing 0.1 mM phenylmethanesulfonyl fluoride, 1 μM pepstatin, 2 μM leupeptin, 1 mM 1,10-phenanthroline, 1 mM EDTA, 10 μM CaCl2, 10 μM MgCl2 and 0.1% BSA in a total volume of 0.4 ml. After 4 hours incubation, cold 5 mM Hepes/Tris buffer (pH 7.4) containing 0.3% BSA (Buffer A) was added to the mixture. Free and bound [^125 I]endothelin-1 were separated by filtration using Whatman GF/C glass fiber filters. After the filtration, the filters were washed with buffer A, and the radioactivity on the filters was measured in a γ counter. Nonspecific binding was determined in the presence of 200 nM endothelin-1. […]

human ETB receptor = experiment: Endothelin binding inhibition test to human ET receptor (ETB); conditions: 1.1 μM; human cell membranes (SK-N-MC or Girardi heart cells)
Protocol: as §1, §2

ETA receptor = experiment: Endothelin binding inhibition test to ETA receptor (porcine aorta smooth muscle membranes, 125I-endothelin-1); conditions: at 1.1 μM
Protocol: Endothelin binding inhibition test to ETA receptor
(§3) The smooth muscle tissue of porcine aorta was homogenized in a buffer solution of 10 mM MOPS, pH 7.4, at 4° C. by a polytron. To the homogenate, sucrose was added to a concentration of 20%, and the mixture was centrifuged at 1,000×g for 15 minutes, and the supernatant was further centrifuged at 10,000×g for 15 minutes. The supernatant thereof was further centrifuged at 90,000×g for 40 minutes. The membrane precipitate thereby obtained was suspended in a buffer solution of 5 mM HEPES/Tris, pH 7.4, at a concentration of 25 mg/ml.
(§4) Then, 16 μl of this membrane suspension was added to 340 μl of 50 mM tris/HCl buffer, pH 7.4, containing […] calcium chloride, 10 μM magnesium chloride, 0.1 mM PMSF, 1 μM pepstatin A, 2 μM leupeptin, 1 mM 1,10-phenanthroline and 0.1% bovine serum albumin. To this suspension, 4 μl of (A) endothelin-1 (for nonspecific binding; 0.2 μM as the final concentration), (B) buffer solution A (for total control binding), or (C) a test compound (1.1 μM as the final concentration), was added. Further, to each suspension, 40 μl of ^125 I-endothelin-1 (12000-18000 cpm) was added. […] Then, the radioactivity trapped by the glass filter was measured, and the ^125 I-endothelin-1 binding inhibition D (%) at 1.1 μM of the test compound was determined by the following equation. […]

ETB receptor = experiment: Endothelin binding inhibition test to ETB receptor (porcine cerebellum membranes, 125I-endothelin-1); conditions: at 1.1 μM
Protocol: Endothelin binding inhibition test to ETB receptor
as §3, with “cerebellum” for “smooth muscle tissue”, “porcine” for “porcine aorta”, “3.3” for “25”
as §4

[1] = tested on: isolated rabbit iliac arteries; experiment: Activities against endothelin-induced contraction of isolated rabbit iliac arteries
Protocol: Activities against endothelin-induced contraction of isolated rabbit iliac arteries
(§5) The iliac artery of rabbit was isolated, and a spiral preparation having a width of 1 mm and a length of 10 mm was prepared therefrom. The preparation having the endothelial cells denuded, was placed in a 5 ml organ bath filled with a Krebs.Henseleit solution saturated with a gas mixture of 95% O2 and 5% CO2, and a change in the tension was isometrically measured and recorded.
(§6) Endothelin-1 was added into the organ bath in a cumulatively increasing manner, whereby the influence of a compound of the present invention to the concentration-response curve for endothelin-1 was examined. The compound was added into the organ bath 20 minutes prior to the addition of endothelin-1.

[2] = tested on: isolated porcine coronary arteries; experiment: Activities against endothelin-induced contraction of isolated porcine coronary arteries; parameters: species or system pig
Protocol: Activities against endothelin-induced contraction of isolated porcine coronary arteries
as §5, with “coronary” for “iliac”, “pig” for “rabbit”, “extracted,” for “isolated,”, “hanged” for “placed”, “Krebs.Heneseleit” for “Krebs.Henseleit”
as §6

[3] = 0.1 to 10 μM, rabbit iliac artery

| Percent (%) inhibition of [125I]ET-1 specific binding to ETA (human ETA receptor) | Percent (%) inhibition of [125I]ET-1 specific binding to ETB (human ETB receptor) | 125I-endothelin-1 binding inhibition D (%) to ETB (ETB receptor) | SMILES | 125I-endothelin-1 binding inhibition D (%) to ETA (ETA receptor) | effect on the isolated artery when applied alone [1] | effect on maximum response to endothelin-1 [1, 3] | influence on the concentration-response curve for endothelin-1 [1, 3] | effect on the isolated artery when applied alone [2] | influence on the concentration-response curve for endothelin-1 ([2]; 10 μM, added 20 minutes prior to endothelin-1, porcine coronary artery) | effect on maximum response to endothelin-1 ([2]; 10 μM, porcine coronary artery) |
| --- | --- | --- | --- | --- | --- | --- | --- | --- | --- | --- |
| 99% | 80% | 80% | COc1ccc([C@H]2c3ncccc3[C@@H](c3ccc4c(c3)OCO4)[C@@H]2C(=O)O)cc1 (relative stereo) [Compound 2-enantiomer A] | 99% | – | – | – | – | – | – |
| – | – | – | COc1ccc([C@H]2c3ncccc3[C@@H](c3ccc4c(c3)OCO4)[C@@H]2C(=O)O)cc1 (relative stereo) [Compound 2, (5RS,6SR,7SR)-6-Carboxy-5-(3,4-methylenedioxyphenyl)-7-(4-methoxyphenyl)cyclopenteno[1,2-b]pyridine] | – | showed no effects to the isolated iliac artery when applied alone | did not affect the maximum response | remarkably shifted the concentration-response curves of endothelin-1 to the right | showed no effects to the isolated coronary artery when applied alone | remarkably shifted the concentration-response curves of endothelin-1 to the right | did not affect the maximum response |
